According to patent US12583825B2, “Benzo[h]quinazolin-4-amine and thieno[3,2-h]quinazolin-4-amine derivatives for the treatment of cancer” (Redona Therapeutics, Inc., priority 2020, dated 2026):

Assays:
[1] = biological target: T1, recombinant human CLK3 (Homo sapiens, UniProt P49761); test: CLK3 kinase assay (LANCE Ultra); type: biochemical; details: 0.5 nM CLK3, 300 μM ATP, 3 hours at 30° C.
T1 construct: purchased Thermo Fisher Scientific PV3826
Protocol: CLK3 kinase activity was measured using the LANCE® Ultra technology (PerkinElmer) essentially as recommended by the supplier. Briefly, 2.5 μL of test sample at 4× the desired final concentration in 4% DMSO were dispensed into white, low volume, round bottom, 384 well plates (Corning, cat. no. 4512). 5 μL of a mixture containing recombinant human CLK3 (Thermo Fisher Scientific, cat. no. PV3826) and the labeled peptide substrate ULight™-CREBtide (PerkinElmer, cat. no. TRF0107) prepared in 1.33× kinase buffer (Thermo Fisher Scientific, cat. no. PV3189) were then added. Finally, the reactions were started by adding 2.5 μL of a 4× solution of ATP in kinase buffer. The plates were sealed with adhesive foils and incubated for 3 hours at 30° C. in the dark. The final concentrations of CLK3, ULight™—CREBtide, and ATP were 0.5 nM, 50 nM, and 300 μM, respectively. 5 μL of 40 mM EDTA were then added to terminate the reactions. The Eu-anti-phospho-CREB antibody (PerkinElmer, cat. no. TRF0200) diluted in LANCE® detection buffer (PerkinElmer, cat. no. CR97) was then added to a final concentration of 2 nM and the reactions were incubated for 1 hour at room temperature in the dark. The signals were measured using a Synergy 4 reader (BioTek) with a 320/80 nm filter for the excitation and 620/10 nm and 665/8 nm filters for the donor and acceptor emission, respectively. […] IC50 values were calculated by fitting the concentration-response data to a sigmoidal 4-parameter logistic model.

[2] = system: MDA-MB-231 cells; test: MDA-MB-231 proliferation assay; type: cell-based; details: Homo sapiens, 72 hours, YO-PRO-1 readout
Protocol: MDA-MB-231 Proliferation Assay
MDA-MB-231 cells were cultivated in DMEM High Glucose (4.5 g/L) with L-Glutamine (BioConcept, cat. no. 1-26F03-I) supplemented with 1% Na-pyruvate (Sigma, cat. no. S8636), 1% Penicillin-Streptomycin (BioConcept, cat. no. 4-01F00H), and 10% FBS (Sigma, cat. no. F9665) using standard techniques. Cells were seeded in black, clear-bottom 384 well plates for tissue culture (Greiner Bio-One, cat. no. 781091) at a density of 750 cells per well in 20 μL medium and the plates were incubated overnight at 37° C. with 5% CO2 prior to treatment. Experimental compounds were serially diluted in DMSO to 200× the desired final concentrations. The solutions were then diluted 1:40 with culture medium and 5 μL aliquots were mixed into the wells containing the cells. The final concentration of DMSO was 0.5%. The plates were incubated for 72 hours and cell numbers were then measured using YO-PRO™-1 Iodide (ThermoFisher Scientific, cat. no. Y3603) essentially as recommended by the manufacturer. […] The plates were incubated at room temperature in the dark for 30 minutes. Fluorescence intensity signals were then measured on a Synergy 4 reader (BioTek) using 485/20 nm and 530/25 nm filters for the excitation and emission, respectively. Relative proliferation values were calculated by normalizing the raw data using DMSO-treated cells (100% proliferation) and the signals obtained from cells that were evaluated at the time of compound addition (0% proliferation). The concentration-response data were fitted to a sigmoidal 4-parameter logistic model with the maximum constrained to 100%.

T1 sequence (P49761 whole entry): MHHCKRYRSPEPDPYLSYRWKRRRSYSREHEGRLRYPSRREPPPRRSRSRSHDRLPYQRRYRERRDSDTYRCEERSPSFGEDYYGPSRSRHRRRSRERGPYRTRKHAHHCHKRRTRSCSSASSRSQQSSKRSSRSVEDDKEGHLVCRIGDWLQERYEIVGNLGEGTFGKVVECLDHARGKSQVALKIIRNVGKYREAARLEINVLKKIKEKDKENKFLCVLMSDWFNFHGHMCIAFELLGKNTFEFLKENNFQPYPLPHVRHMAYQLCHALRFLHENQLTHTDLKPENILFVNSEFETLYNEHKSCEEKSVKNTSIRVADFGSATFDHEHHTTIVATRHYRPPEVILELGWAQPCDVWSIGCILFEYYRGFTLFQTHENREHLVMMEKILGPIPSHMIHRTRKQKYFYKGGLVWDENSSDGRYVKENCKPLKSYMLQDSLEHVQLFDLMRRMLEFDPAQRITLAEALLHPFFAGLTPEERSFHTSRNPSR

SMILES: CC1(C)/C(=N/O)c2cc(O[C@H]3CC[C@H](N)CC3)ccc2-c2ncnc(N)c21 [Example 2, (6Z)-4-amino-8-(trans-4-aminocyclohexoxy)-5,5-dimethyl-benzo[h]quinazolin-6-one oxime]
- IC50 [1]: 16.6 nM
- GI50 [2]: 742 nM

SMILES: CC1(C)/C(=N/OCc2ccccc2)c2cc(O[C@H]3CC[C@H](N)CC3)ccc2-c2ncnc(N)c21 [Example 3, (6Z)-8-(trans-4-aminocyclohexoxy)-6-benzyloxyimino-5,5-dimethyl-benzo[h]quinazolin-4-amine]
- IC50 [1]: 200 nM
- GI50 [2]: 1960 nM

SMILES: COc1ccc2c(c1)/C(=N\OCC(=O)O)C(C)(C)c1c(N)ncnc1-2 [Example 5, 2-[(Z)-(4-amino-8-methoxy-5,5-dimethyl-benzo[h]quinazolin-6-ylidene)amino]oxyacetic acid]
- IC50 [1]: 227 nM

SMILES: COc1ccc2c(c1)/C(=N\OCC(N)=O)C(C)(C)c1c(N)ncnc1-2 [Example 7, 2-[(Z)-(4-amino-8-methoxy-5,5-dimethyl-benzo[h]quinazolin-6-ylidene)amino]oxyacetamide]
- IC50 [1]: 115 nM

SMILES: COc1ccc2c(c1)/C(=N\OCC(=O)NCCN)C(C)(C)c1c(N)ncnc1-2 [Example 8, N-(2-aminoethyl)-2-[(Z)-(4-amino-8-methoxy-5,5-dimethyl-benzo[h]quinazolin-6-ylidene)amino]oxy-acetamide]
- IC50 [1]: 73.2 nM
- GI50 [2]: > 2000 nM

SMILES: COc1ccc2c(c1)/C(=N\O[C@H]1CC[C@@H](N)CC1)C(C)(C)c1c(N)ncnc1-2 [Example 9, (6Z)-6-(cis-4-aminocyclohexoxy)imino-8-methoxy-5,5-dimethyl-benzo[h]quinazolin-4-amine]
- IC50 [1]: 90.2 nM
- GI50 [2]: 1050 nM

SMILES: COc1ccc2c(c1)/C(=N\O[C@H]1CC[C@H](N)CC1)C(C)(C)c1c(N)ncnc1-2 [Example 10, (6Z)-6-(trans-4-aminocyclohexoxy)imino-8-methoxy-5,5-dimethyl-benzo[h]quinazolin-4-amine]
- IC50 [1]: 75.8 nM
- GI50 [2]: > 2000 nM

SMILES: COc1ccc2c(c1)/C(=N\OC[C@H]1CC[C@H](N)CC1)C(C)(C)c1c(N)ncnc1-2 [Example 11, (6Z)-6-[(trans-4-aminocyclohexyl)methoxyimino]-8-methoxy-5,5-dimethyl-benzo[h]quinazolin-4-amine]
- IC50 [1]: 437 nM

SMILES: COc1ccc2c(c1)/C(=N\OC[C@H]1CNC(=O)O1)C(C)(C)c1c(N)ncnc1-2 [Example 12, (5R)-5-[[(Z)-(4-amino-8-methoxy-5,5-dimethyl-benzo[h]quinazolin-6-ylidene)amino]oxymethyl]oxazolidin-2-one]
- IC50 [1]: 129 nM
- GI50 [2]: > 2000 nM

SMILES: COC(=O)CCO/N=C1\c2cc(O[C@H]3CC[C@H](N)CC3)ccc2-c2ncnc(N)c2C1(C)C [Example 14, methyl 3-[(Z)-[4-amino-8-(trans-4-aminocyclohexoxy)-5,5-dimethyl-benzo[h]quinazolin-6-ylidene]amino]oxypropanoate]
- IC50 [1]: 23.9 nM
- GI50 [2]: 597 nM

SMILES: CC1(C)/C(=N/OCCCO)c2cc(O[C@H]3CC[C@H](N)CC3)ccc2-c2ncnc(N)c21 [Example 15, 3-[(Z)-[4-amino-8-(trans-4-aminocyclohexoxy)-5,5-dimethyl-benzo[h]quinazolin-6-ylidene]amino]oxypropan-1-ol]
- IC50 [1]: 29.8 nM
- GI50 [2]: 714 nM

SMILES: CC1(C)/C(=N/OCCN2CCCCC2)c2cc(O[C@H]3CC[C@H](N)CC3)ccc2-c2ncnc(N)c21 [Example 16, (6Z)-8-(trans-4-aminocyclohexoxy)-5,5-dimethyl-6-[2-(1-piperidyl)ethoxyimino]benzo[h]quinazolin-4-amine]
- IC50 [1]: 265 nM
- GI50 [2]: > 2000 nM

SMILES: CCN(CC)CCCO/N=C1\c2cc(O[C@H]3CC[C@H](N)CC3)ccc2-c2ncnc(N)c2C1(C)C [Example 17, (6Z)-8-(trans-4-aminocyclohexoxy)-6-[3-(diethylamino)propoxyimino]-5,5-dimethyl-benzo[h]quinazolin-4-amine]
- IC50 [1]: 410 nM

SMILES: CC1(C)/C(=N/OCc2ccc(C#N)cc2)c2cc(O[C@H]3CC[C@H](N)CC3)ccc2-c2ncnc(N)c21 [Example 20, 4-[[(Z)-[4-amino-8-(trans-4-aminocyclohexoxy)-5,5-dimethyl-benzo[h]quinazolin-6-ylidene]amino]oxymethyl]benzonitrile]
- IC50 [1]: 237 nM
- GI50 [2]: > 2000 nM

SMILES: CCO/N=C1\c2cc(O[C@H]3CC[C@H](N)CC3)ccc2-c2ncnc(N)c2C1(C)C [Example 24, (6Z)-8-(trans-4-aminocyclohexoxy)-6-ethoxyimino-5,5-dimethyl-benzo[h]quinazolin-4-amine]
- GI50 [2]: 743 nM

SMILES: CO/N=C1\c2cc(O[C@H]3CC[C@H](N)CC3)cc(Cl)c2-c2ncnc(N)c2C1(C)C [Example 39, (6Z)-8-(trans-4-aminocyclohexoxy)-10-chloro-6-methoxyimino-5,5-dimethyl-benzo[h]quinazolin-4-amine]
- GI50 [2]: > 2000 nM

SMILES: CO/N=C1\c2cc(OC)c(N)cc2-c2ncnc(N)c2C1(C)C [Example 42, (6Z)-8-methoxy-6-methoxyimino-5,5-dimethyl-benzo[h]quinazoline-4,9-diamine]
- GI50 [2]: > 2000 nM

SMILES: CO/N=C1\c2cc(O[C@H]3CC[C@@H](N)CC3)ccc2-c2ncnc(N)c2C1(C)C [Example 54, (6Z)-8-(cis-4-aminocyclohexoxy)-6-methoxyimino-5,5-dimethyl-benzo[h]quinazolin-4-amine]
- IC50 [1]: 1.9 nM

SMILES: COc1ccc2c(c1)/C(=N\OC[C@@H]1CCNC1)C(C)(C)c1c(N)ncnc1-2 [Example 62, (6Z)-8-methoxy-5,5-dimethyl-6-[[(3R)-pyrrolidin-3-yl]methoxyimino]benzo[h]quinazolin-4-amine]
- IC50 [1]: 372 nM

SMILES: COc1ccc2c(c1)/C(=N/OC[C@@H]1CCNC1)C(C)(C)c1c(N)ncnc1-2 [Example 63, (6E)-8-methoxy-5,5-dimethyl-6-[[(3R)-pyrrolidin-3-yl]methoxyimino]benzo[h]quinazolin-4-amine]
- IC50 [1]: 313 nM

SMILES: C=CCO/N=C1\c2cc(O[C@H]3CC[C@H](N)CC3)ccc2-c2ncnc(N)c2C1(C)C [Example 64, (6Z)-6-allyloxyimino-8-(trans-4-aminocyclohexoxy)-5,5-dimethyl-benzo[h]quinazolin-4-amine]
- GI50 [2]: > 2000 nM

SMILES: CC(C)O/N=C1\c2cc(O[C@H]3CC[C@H](N)CC3)ccc2-c2ncnc(N)c2C1(C)C [Example 67, (6Z)-8-(trans-4-aminocyclohexoxy)-6-isopropoxyimino-5,5-dimethyl-benzo[h]quinazolin-4-amine]
- GI50 [2]: > 2000 nM

SMILES: CO/N=C1\c2cc(N(C)C3CCNCC3)ccc2-c2ncnc(N)c2C1(C)C [Example 69, (6Z)-6-methoxyimino-N8,5,5-trimethyl-N8-(4-piperidyl)benzo[h]quinazoline-4,8-diamine]
- GI50 [2]: > 2000 nM

SMILES: COc1ccc2c(c1)/C(=N\OC[C@H]1CCN(C)C1)C(C)(C)c1c(N)ncnc1-2 [Example 71, (6Z)-8-methoxy-5,5-dimethyl-6-[[(3S)-1-methylpyrrolidin-3-yl]methoxyimino]benzo[h]quinazolin-4-amine]
- IC50 [1]: 173 nM

SMILES: CO/N=C1\c2cc(Br)ccc2-c2ncnc(N)c2C1(C)C [Example 89, (6Z)-8-bromo-6-methoxyimino-5,5-dimethyl-benzo[h]quinazolin-4-amine]
- IC50 [1]: 98.6 nM

SMILES: CC1(C)/C(=N/OCCOC(F)(F)F)c2cc(O[C@H]3CC[C@@H](N)CC3)ccc2-c2ncnc(N)c21 [Example 105, (6Z)-8-(cis-4-aminocyclohexoxy)-5,5-dimethyl-6-[2-(trifluoromethoxy)ethoxyimino]benzo[h]quinazoline-4-amine]
- GI50 [2]: 82 nM

SMILES: CC1(C)/C(=N/OCCOc2ccccc2)c2cc(O[C@H]3CC[C@@H](N)CC3)ccc2-c2ncnc(N)c21 [Example 107, (6Z)-8-(cis-4-aminocyclohexoxy)-5,5-dimethyl-6-(2-phenoxyethoxyimino)benzo[h]quinazoline-4-amine]
- GI50 [2]: 319 nM

SMILES: CC1(C)/C(=N/OCCCc2cccnc2)c2cc(O[C@H]3CC[C@@H](N)CC3)ccc2-c2ncnc(N)c21 [Example 108, (6Z)-8-(cis-4-aminocyclohexoxy)-5,5-dimethyl-6-[3-(3-pyridyl)propoxyimino]benzo[h]quinazoline-4-amine]
- GI50 [2]: 942 nM
